In brackets after ≈: the same amount, converted by molar mass.
Key:
[1] = Saturated aqueous solubility of RTB in PBS with or without HP-β-CD, HPLC; format: physicochemical
Description: Solubility of riboflavin tetrabutyrate (RTB) was tested in PBS solution, with or without 10% hydroxypropyl-beta-cyclodextrin (HP-β-CD) as solubilizer, at varying pH. For each formulation, 5 mg of RTB was added to 5 mL of pH-adjusted PBS containing 10% HP-β-CD at 25° C., and mixed well. Solubility was analyzed as in Example 1a.

porcine corneas [2] = experiment: Ex vivo study (Dresden method), RTB-UVA crosslinking, static stress-strain, de-epithelialized corneas; details: de-epithelialized porcine corneal strips; 0.1% RTB in MCT or F6H8 or combination; UVA 370 nm, 3 mW/cm2, 30 minutes
Description: Fresh porcine cadaver eyes with intact epithelia and clear corneas are retrieved from the local slaughterhouse within 2 to 5 hours post-mortem. The eyes are de-epithelialized mechanically, removing the corneoscleral ring with scissors. […] Because of the natural thickness of the porcine cornea, only 1 corneal strip with clearly cut perpendicular edges could be prepared properly from each eye. Half of the corneas are treated with RTB-UVA irradiation, and half are used as untreated controls. Using ultrasound pachymetry (Pachette, Technomed), the central corneal thickness is determined in the eyes. […]
(§1) The porcine corneal strips are clamped horizontally at a distance of 8.0 mm between the jaws of a commercially available microcomputer-controlled biomaterial tester (Minimat, Rheometric Scientific GmbH. To include the physiological stress range, a prestress of 5×10^3 Pa (1 Pa=1 N/m2) is used, which requires a force of 20 mN in porcine corneas. The strain is then increased linearly with a velocity of 1.5 mm min-1, and the stress is measured up to 2×10^5 Pa. The stress-strain values are fitted by an exponential function σ=A exp (BX) using the SPSS-calculation program (SPSS GmbH Software, Munich). Young's modulus (E) is calculated for 4%, 6%, and 8% strain as the gradient of the stress-strain graph (E=dσ/dε=A×B exp (B×ε). […]

porcine corneas [3] = experiment: Ex vivo RTB-UVA crosslinking, static stress-strain, without de-epithelialization; details: intact porcine eyes, corneas not de-epithelialized; RTB formulations in MCT or F6H8; UVA radiation
Description: Starting 5 minutes before the treatment, 0.1% riboflavin tetrabutyrate (RTB) photosensitizer solution (10 mg riboflavin tetrabutyrate in 10 mL MCT or F6H8 or a combination thereof) is dropped on the treated strips and MCT or F6H8 or combination solution is dropped on the control strips at 5-minute intervals. Ultraviolet A irradiation (370 nm) is applied using 2 double UVA diodes (Roithner Lasertechnik) with an irradiance of 3 mW/cm2 at a distance of 1.0 cm from the cornea for 30 minutes. This is equal to a dose of 5.4 J/cm^2. The parameters of exposure are chosen according to the treatment procedure used in keratoconus patients. Three 1.3 V accumulators are used as a power generator. […]
as §1, with “Munich).” for “Munich). Young's modulus (E) is calculated for 4%, 6%, and 8% strain as the gradient of the stress-strain graph (E=dσ/dε=A×B exp (B×ε).”

[4] = Stability of riboflavin tetrabutyrate in organic solvents; format: physicochemical; details: RTB
Text: The stability of riboflavin tetrabutyrate (RTB) in various solvents was investigated. Using similar sample analysis methods described in Examples 1a-1c, the stability of RTB in formulations of MCT, F6H8, and combinations were monitored at various temperatures.

[5] = Sample X1, 0.2%, MCT 100%, F6H8 0%, 2-8° C.
[6] = Sample X2, 0.2%, MCT 100%, F6H8 0%, 25° C.
[7] = Sample X3, 0.2%, MCT 100%, F6H8 0%, 40° C.
[8] = Sample X4, 0.1%, MCT 70%, F6H8 30%, 2-8° C.
[9] = Sample X5, 0.1%, MCT 70%, F6H8 30%, 25° C.
[10] = Sample X6, 0.1%, MCT 70%, F6H8 30%, 40° C.
[11] = Sample X7, 0.1%, MCT 50%, F6H8 50%, 2-8° C.
[12] = Sample X8, 0.1%, MCT 50%, F6H8 50%, 25° C.
[13] = Sample X9, 0.1%, MCT 50%, F6H8 50%, 40° C.

Compound: CCCC(=O)OC[C@@H](OC(=O)CCC)[C@@H](OC(=O)CCC)[C@H](Cn1c2nc(=O)[nH]c(=O)c-2nc2cc(C)c(C)cc21)OC(=O)CCC [RTB, (2R,3S,4S)-5-(7,8-dimethyl-2,4-dioxo-3,4-dihydrobenzo[g]pteridin-10(2H)-yl) pentane-1,2,3,4-tetrayl tetrabutyrate]
- Solubility ([1]; Sample C1, 25° C., HP-β-CD 10%, pH 5.0): 8 ng/mL (≈ 12.2 nM)
- Solubility ([1]; Sample C2, 25° C., HP-β-CD 10%, pH 5.5): 3 ng/mL (≈ 4.57 nM)
- Solubility ([1]; Sample C3, 25° C., HP-β-CD 10%, pH 6.0): 4 ng/mL (≈ 6.09 nM)
- Solubility ([1]; Sample C4, 25° C., without HP-β-CD, pH 5.0): 8 ng/mL (≈ 12.2 nM)
- Solubility ([1]; Sample C5, 25° C., without HP-β-CD, pH 5.5): 1 ng/mL (≈ 1.52 nM)
- Solubility ([1]; Sample C6, 25° C., without HP-β-CD, pH 6.0): 2 ng/mL (≈ 3.05 nM)
- stress using strain, treated vs untreated corneas (porcine corneas [2]): greater in the treated corneas
- stress using strain, treated vs untreated corneas (porcine corneas [3]): greater in the treated corneas
- Appearance (clear/precip.) 0 hr [4, 5]: clear
- Conc. 0 hr [4, 5]: 2.055, mg/mL
- Appearance (clear/precip.) 1 Month [4, 5]: clear
- Conc. 1 Month [4, 5]: 1.832, mg/mL
- Appearance (clear/precip.) 14 days [4, 5]: clear
- Conc. 14 days [4, 5]: 1.837, mg/mL
- Appearance (clear/precip.) 0 hr [4, 6]: clear
- Conc. 0 hr [4, 6]: 2.055, mg/mL
- Appearance (clear/precip.) 1 Month [4, 6]: clear
- Conc. 1 Month [4, 6]: 1.817, mg/mL
- Appearance (clear/precip.) 14 days [4, 6]: clear
- Conc. 14 days [4, 6]: 1.888, mg/mL
- Appearance (clear/precip.) 0 hr [4, 7]: clear
- Conc. 0 hr [4, 7]: 2.055, mg/mL
- Appearance (clear/precip.) 1 Month [4, 7]: clear
- Conc. 1 Month [4, 7]: 1.833, mg/mL
- Appearance (clear/precip.) 14 days [4, 7]: clear
- Conc. 14 days [4, 7]: 1.958, mg/mL
- Appearance (clear/precip.) 0 hr [4, 8]: clear
- Conc. 0 hr [4, 8]: 1.077, mg/mL
- Appearance (clear/precip.) 1 Month [4, 8]: clear
- Conc. 1 Month [4, 8]: 0.960, mg/mL
- Appearance (clear/precip.) 14 days [4, 8]: clear
- Conc. 14 days [4, 8]: 1.015, mg/mL
- Appearance (clear/precip.) 0 hr [4, 9]: clear
- Conc. 0 hr [4, 9]: 1.077, mg/mL
- Appearance (clear/precip.) 1 Month [4, 9]: clear
- Conc. 1 Month [4, 9]: 0.953, mg/mL
- Appearance (clear/precip.) 14 days [4, 9]: clear
- Conc. 14 days [4, 9]: 1.012, mg/mL
- Appearance (clear/precip.) 0 hr [4, 10]: clear
- Conc. 0 hr [4, 10]: 1.077, mg/mL
- Appearance (clear/precip.) 1 Month [4, 10]: clear
- Conc. 1 Month [4, 10]: 0.962, mg/mL
- Appearance (clear/precip.) 14 days [4, 10]: clear
- Conc. 14 days [4, 10]: 1.027, mg/mL
- Appearance (clear/precip.) 0 hr [4, 11]: clear
- Conc. 0 hr [4, 11]: 1.123, mg/mL
- Appearance (clear/precip.) 1 Month [4, 11]: precip.
- Conc. 1 Month [4, 11]: 0.848, mg/mL
- Appearance (clear/precip.) 14 days [4, 11]: precip.
- Conc. 14 days [4, 11]: 0.976, mg/mL
- Appearance (clear/precip.) 0 hr [4, 12]: clear
- Conc. 0 hr [4, 12]: 1.123, mg/mL
- Appearance (clear/precip.) 1 Month [4, 12]: clear
- Conc. 1 Month [4, 12]: 0.993, mg/mL
- Appearance (clear/precip.) 14 days [4, 12]: clear
- Conc. 14 days [4, 12]: 1.056, mg/mL
- Appearance (clear/precip.) 0 hr [4, 13]: clear
- Conc. 0 hr [4, 13]: 1.123, mg/mL
- Appearance (clear/precip.) 1 Month [4, 13]: clear
- Conc. 1 Month [4, 13]: 0.984, mg/mL
- Appearance (clear/precip.) 14 days [4, 13]: clear
- Conc. 14 days [4, 13]: 1.054, mg/mL
